From patent publication US5912351A, “Anhydrous 1,4-Dihydropyridines and salts thereof” (Recordati, S.A. Chemical and Pharmaceutical Company, priority 1995, dated 1999)

Key:
[1] = tested on: LDL, isolated from human plasma; assay: Chemical (Cu++) oxidation of LDL, conjugated diene formation at 234 nm; format: biochemical; set-up: Lag time of LDL oxidation: unit not given here
Description: The ability of Lercanidipine to function as an antioxidant was evaluated by incubating LDL, isolated from human plasma, for 22 hours with an oxidizing agent (20 μM Cu++) in the presence of different concentrations of the test compounds (0.01 μM-50 μM). The LDL oxidation was followed by monitoring conjugated diene formation with a ultraviolet (UV) spectrometer at 234 nm.
The experimental conditions were as follows. LDL (d=1.019-1.063) were isolated from human pooled plasma by sequential ultracentrifugation at 4° C. and 40,000 rpm in a 50 Ti rotor, using a L5-50 ultracentrifuge (Beckman, Palo Alto, Calif.). The LDL were then dialyzed against 0.15 M NaCl containing 0.01% ethylenediaminetetraacetic acid pH 7.4, sterilized by filtration through a […] millipore filter and stored at 4° C. under nitrogen in the dark until use (up to 3 weeks). Before use, LDL were dialyzed against ethylenediaminetetraacetic acid free phosphate buffered saline, pH 7.4, on Sephadex G-25 columns (PD-10, Pharmacia Fine Chemicals, Uppsala, Sweden). Then the LDL were filtered through a sterile 0.22 μM filter. In a phosphate buffered saline (50 μg lipoprotein protein/ml), the LDL were oxidized by incubation at 25° C. with 20 μM CuSO4 for 3 hours. The lercanidipine solution was prepared as a 10^-2 M stock solution in methanol or ethanol and added as a methanol or ethanol solution (maximum 1% v/v) prior to addition of the copper solution. The effect of lercanidipine on the oxidation of LDL was determined by continuous monitoring of the formation of conjugated dienes by recording the increase in the absorbance at 234 nm at 5 min intervals during a three hour period, against a phosphate buffered saline blank, using a UV spectrophotometer (Beckman DU 640) equipped with a continuous reading and an automatic 6-cell changer. The time prior to the onset of oxidation (lag time) was calculated as the intercept between the line of the maximum slope of the propagation phase and the x-axis.

rat myocytes = assay: Arterial myocyte migration, micro chemotaxis chamber with fibrinogen; format: cell-based; settings: 5 hours, fibrinogen 600 μg/ml, FIG. 2
Description: Migration of rat myocytes was examined using a 48-well micro chemotaxis chamber (Neuro-Probe, USA). Freshly trypsinized myocytes prepared according to the procedure in Example 4A were suspended in a medium supplemented with 5% fetal calf serum (assay medium). The lower wells, containing 27 μl of the assay medium that included fibrinogen (600 μg/ml) as chemotactic agent, were covered with a polyvinylpyrrolidone-free polycarbonate filter ([…]). Fifty μl of the cell suspension (1×10^6 cells/ml) were placed in the upper compartment with the tested compounds. Incubation was carried out for 5 hours at 37° C. in an atmosphere of 95% air and 5% CO2.
After incubation the filter was removed from the chamber and non-migrated cells were scraped from the upper surface, and the filters washed with phosphate buffered saline three times. The filters were stained with Diff-Quik (Merz-Dade AG, Switzerland). The number of myocytes per 100×high power field that had migrated to the lower surface of the filters was determined microscopically. Six high power fields were counted per sample and the results were averaged.

enzyme ACAT = target: T1, enzyme ACAT (Mus musculus, UniProt Q61263); assay: Cholesterol esterification induced by AcLDL in mouse peritoneal macrophages; format: cell-based; settings: FIG. 3
T1 construct: Mouse peritoneal macrophages were obtained by peritoneal lavage from mice; endogenous in cells; host or cells: peritoneal macrophages of Balb/c mice, three days after intraperitoneal thioglycolate
T1 sequence (Q61263 1-540): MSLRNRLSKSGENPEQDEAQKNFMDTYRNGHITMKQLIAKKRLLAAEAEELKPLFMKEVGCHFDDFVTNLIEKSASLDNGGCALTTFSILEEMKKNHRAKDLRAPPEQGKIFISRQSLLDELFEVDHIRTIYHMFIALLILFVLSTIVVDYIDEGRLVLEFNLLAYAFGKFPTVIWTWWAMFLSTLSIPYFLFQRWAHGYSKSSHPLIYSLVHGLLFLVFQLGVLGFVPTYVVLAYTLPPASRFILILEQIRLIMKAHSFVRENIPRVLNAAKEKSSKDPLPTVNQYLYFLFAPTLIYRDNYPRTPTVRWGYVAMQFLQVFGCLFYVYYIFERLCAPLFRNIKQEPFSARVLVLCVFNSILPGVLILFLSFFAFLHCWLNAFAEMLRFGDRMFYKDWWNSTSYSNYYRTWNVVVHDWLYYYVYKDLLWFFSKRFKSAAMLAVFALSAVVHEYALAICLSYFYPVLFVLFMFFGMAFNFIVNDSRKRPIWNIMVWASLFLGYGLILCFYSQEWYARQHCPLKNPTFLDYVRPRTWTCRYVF
Description: Cholesterol esterification induced by AcLDL in mouse peritoneal macrophages was investigated as follows. Mouse peritoneal macrophages were obtained by peritoneal lavage from mice (Balb/c Charles River, Calco, Italy) three days after intraperitoneal injection of thioglycolate. Cells (2×3×10^6) were plated in 35 mm wells with Dulbecco's minimum essential medium containing 10% fetal bovine serum. After 3 hours, the dishes were washed to eliminate unattached cells and maintained in Dulbecco's minimum essential medium plus 10% fetal bovine serum for 24 hours before use. After cell plating, experiments were performed at 37° C. in serum free Dulbecco's minimum essential medium containing 0.2% essentially fatty acid-free bovine serum albumin, AcLDL, a specific ACAT inhibitor, S-58035 (See C. A. Ross et al., J. Biol, Chem. 259: 815-819 (1984)), and lercanidipine, or the lercanidipine enantiomers indicated. Human LDL (d=1.019-1.063 g/ml) were isolated from plasma of healthy volunteers by sequential ultracentrifugation (Beckman L5-50, Palo Alto, Calif.). […] Trichloroacetic acid non-precipitable radioactivity was below 2% of total. […] Cholesterol esterification was measured after addition of [1-^14 C] oleic acid (0.68 mCi sample) complexed with bovine serum albumin during the last 1 or 2 hours of incubation by subsequent determination of radioactivity associated with cellular cholesteryl esters.

| SMILES | Lag time of LDL oxidation ([1]; 0.5 μM, 20 μM Cu++) | Lag time of LDL oxidation ([1]; 1.0 μM, 20 μM Cu++) | Lag time of LDL oxidation ([1]; 2.5 μM, 20 μM Cu++, P < 0.05) | Lag time of LDL oxidation ([1]; 5.0 μM, 20 μM Cu++, P < 0.01) | increase of the lag time for LDL oxidation ([1]; 10 μM) | Lag time of LDL oxidation ([1]; 10.0 μM, 20 μM Cu++, P < 0.01) | concentrations significantly suppressing the onset of LDL oxidation ([1]; 20 μM Cu++) | potency relative to lacidipine (LDL oxidation) ([1]; assays herein) | inhibition of myocytes migration (rat myocytes) | relative potency, cholesterol esterification (enzyme ACAT) |
| --- | --- | --- | --- | --- | --- | --- | --- | --- | --- | --- |
| COC(=O)C1=C(C)NC(C)=C(C(=O)OC(C)(C)CN(C)CCC(c2ccccc2)c2ccccc2)C1c1cccc([N+](=O)[O-])c1 (racemic) [LE, methyl 1,1,N-trimethyl-N-(3,3-diphenylpropyl)-2-aminoethyl 1,4-dihydro-2,6-dimethyl-4-(3-nitrophenyl)-pyridine-3,5-dicarboxylate] | 45.2 ± 3.7 | 49.8 ± 4.7 | 53.6 ± 3.3 | 73.2 ± 4.8 | more than 2 times | 112.7 ± 5.2 | greater than or equal to 2.5 μM | one order of magnitude higher | – | – |
| COC(=O)C1=C(C)NC(C)=C(C(=O)OC(C)(C)CN(C)CCC(c2ccccc2)c2ccccc2)[C@@H]1c1cccc([N+](=O)[O-])c1 [(R)-LE, (R)-(-)METHYL 1,1-N-TRIMETHYL-N-(3,3-DIPHENYLPROPYL)-2-AMINOETHYL 1,4-DIHYDRO-2,6-DIMETHYL-4-(3-NITROPHENYL)PYRIDINE-3,5-DICARBOXYLATE] | – | – | – | – | – | – | – | – | most pronounced effect | most potent compound |
